Results published in US20060063839A1, “Inhibitors of decrease in body temperature” (AJINOMOTO CO., INC., priority 2003, published 2006).

How the values were obtained:
Assay type in all cases: in vivo, rat
[1] = test system: rats under propofol anesthesia; experiment: Measurement 1 of inhibiting effect of decrease in body temperature (rectal temperature, propofol anesthesia); conditions: for variation of body temperature in 3 hours after administering the anesthesia solution to that before administration: average; for inhibiting effect of decrease in body temperature (core temperature), in words: summary of Table 2
Procedure: A catheter was inserted into an external jugular vein of each of rats used in the evaluation in advance and a tip of the catheter was […] from their backs and locked with heparin. […] Then, 42 mL/kg thereof were continuously administered for 1 hour simultaneously with the start of administration of the anesthesia agent. Numbers of each group were set to 4 to 6. As for the administration of the anesthesia agent, 15 mg/kg thereof was intravenously administered through the catheter with bolus method at the beginning. […] As for the measurement of the body temperature, a former value was measured with a rectal thermometer before administering amino acid solutions, and values were measured at 30-minute intervals from the start of administration of the anesthesia agent until 3 hours after the end thereof. The measurement results were calculated as variations (value before administration-value after administration) of values in 3 hours after administering the anesthesia solution to those before administration and represented with average ± standard deviation. As for a statistical test, comparison between two groups with the normal saline solution was conducted using student t-test.

[2] = test system: rats with surgical invasion under propofol anesthesia; experiment: Effect on recovery from operative invasion (abdominal surgery under propofol anesthesia; body temperature and survival)
Procedure: A catheter was inserted into an external jugular vein of each of rats (7 weeks age) used in the evaluation in advance and a tip of the catheter was exserted from their backs and locked with heparin. The rats were recovered for a few days in the status quo. 105 mg/kg of valine (5.25 mL/kg of 2 W/V % of valine solution) was administered through the catheter to a valine-administered group four times at 15-minute intervals from 60 minutes before the start of administration of a propofol anesthesia agent. Then, valine was continuously administered for 5 hours in 420 mg/kg/hr (21 mL/kg of 2 W/V % valine solution) simultaneously with the start of administration of the propofol anesthesia agent. A normal saline solution was administered instead of a valine solution to an objective group. As for the administration of the propofol anesthesia agent, 15 mg/kg thereof was intravenously administered through the catheter with bolus method at the beginning. Soon after that, the agent was started to be continuously administered in 45 mg/kg/hr. 1 hour later, the administration speed was changed to 33.75 mg/kg/hr and continuous administration was conducted for 5 hours. Numbers of each group were set to 8. As for surgical invasion, abdominals of the rats were opened after the bolus anesthesia, their appendixes were exteriorized from their abdominal cavities and exposed in the air for 30 minutes. Then, their appendixes were put back to their abdominal cavities and sutured. As for the measurement of the body temperatures, a former value was measured with a rectal thermometer before administering the amino acids, and the value was measured again in 3 hours after the administration of propofol. The results were shown as the decreased temperature to Pre value. Survival rates were calculated from number of survivors in 24 hours from the start of the experiment.

[3] = test system: peripheral mononuclear blood cells (PBMC) TNF-α production; experiment: Effect on production of peripheral mononuclear blood cell TNF-α (PBMC taken after anesthesia and celiotomy, LPS stimulation, ELISA); conditions: PBMC incubated with 1 μg/mL LPS for 24 hours; valine 4 x 105 mg/kg then 420 mg/kg/hr for 1 hour; n=6
Procedure: (§1) The examination was practiced with three groups of a normal group, a valine-administered group and an objective group. A catheter was inserted into an external jugular vein of each of rats (7 to 8 weeks age) used in the evaluation in advance and a tip of the catheter was exserted from their backs and locked with heparin. The rats were recovered for a few days in the status quo. 105 mg/kg of valine (5.25 mL/kg of 2 W/V % of valine solution) was administered through the inserted catheter to the valine-administered group (n=6) four times at 15-minute intervals from 60 minutes before the start of administration of a propofol anesthesia agent. Then, valine was continuously administered for 1 hour in 420 mg/kg/hr (21 mL/kg of 2 W/V % valine solution) simultaneously with the start of administration of the propofol anesthesia agent. A normal saline solution was administered instead of valine to the objective group (n=6). 15 mg/kg of the propofol anesthesia agent was introduced to be administered through the catheter at the beginning, and continuously administered for 3 hours in 33.75 mg/kg/hr. The celiotomy invasion was conducted by opening the abodominals of the rats simultaneously with the administration of the anesthesia, exteriorizing their appendixes from the abdominal cavities, putting them back again at once and suturing the abdominals. The catheter was not inserted to the normal group. […]

[4] = test system: rats under propofol anesthesia; experiment: Measurement 2 of inhibiting effect of decrease in body temperature: timing of valine administration (Groups A to D)
Procedure: Examination was conducted on whether differences of the inhibiting effect of decrease in body temperature of valine were shown depending on difference of timings of administration (following A to D). A catheter was inserted into an outward jugular vein of each of rats (7 to 8 weeks age) used in the evaluation in advance and a tip of the catheter was exserted from their backs and locked with heparin. The rats were recovered for a few days in the status quo. Valine was administered through the catheter with the following four methods:
A: for 2 hours before the start of administration of propofol
B: for 1 hour before the start of administration of propofol+1 hour after the start of administration of propofol
C: for 2 hours simultaneously with the start of administration of propofol
D: for 2 hours starting from 1 hour after the start of administration of propofol. 105 mg/kg of valine containing 10.5 mL/kg of 1% valine solution was administered to Group A eight times at 15-minute intervals. 105 mg/kg of valine containing 10.5 mL/kg of 1% valine solution was administered to Group B four times at 15-minute intervals and then continuously administered for 1 hour in 420 mg/kg/hr containing 42 mL/kg of 1% valine solution. Valine was continuously administered to Groups C and D for 2 hours in 420 mg/kg/hr containing 42 mL/kg of 1% valine solution. Each group (n=8 to 9) was administered the same total dose of valine. 15 mg/kg of a propofol anesthesia agent was administered through the catheter at the beginning and, after induction of anesthesia, it was continuously administered for 3 hours in 33.75 mg/kg/hr.

[5] = test system: rats with celiotomy invasion under propofol anesthesia; experiment: Body temperature at the end of anesthesia in the celiotomy invasion experiment; conditions: valine-administered group, n=6
Procedure: as §1

[6] = 0.1% solution i.v. (4 x 10.5 mL/kg before, 42 mL/kg during 1 h of propofol)
[7] = 1% solution i.v. (4 x 10.5 mL/kg before, 42 mL/kg during 1 h of propofol)
[8] = Group A: valine for 2 hours before the start of propofol
[9] = Group B: valine for 1 hour before + 1 hour after the start of propofol
[10] = Group C: valine for 2 hours simultaneously with the start of propofol
[11] = Group D: valine for 2 hours starting 1 hour after the start of propofol

| SMILES | variation of body temperature in 3 hours after administering the anesthesia solution to that before administration [1, 6] | variation of body temperature in 3 hours after administering the anesthesia solution to that before administration [1, 7] | inhibiting effect of decrease in body temperature (core temperature), in words [1] | inhibition of the decrease in body temperature versus the objective (saline) group ([2]; 3 hours after administration of propofol) | decrease in body temperature to Pre value ([2]; 3 hours after administration of propofol, valine 4 x 105 mg/kg then 420 mg/kg/hr for 5 hours, n=8) | survival rate after one day ([2]; 24 hours from the start of the experiment, n=8) | production quantity of TNF-α [3] | decrease in body temperature from the time before administration until the end of the anesthesia [4, 8] | increase in body temperature from the end of administration of the anesthesia until 1 hour after [4, 8] | decrease in body temperature from the time before administration until the end of the anesthesia [4, 9] | increase in body temperature from the end of administration of the anesthesia until 1 hour after [4, 9] | decrease in body temperature from the time before administration until the end of the anesthesia [4, 10] | increase in body temperature from the end of administration of the anesthesia until 1 hour after [4, 10] | decrease in body temperature from the time before administration until the end of the anesthesia [4, 11] | increase in body temperature from the end of administration of the anesthesia until 1 hour after [4, 11] | inhibiting effect of decrease in body temperature, in words [4, 11] | body temperature at the end of the administration of the anesthesia [5] |
| --- | --- | --- | --- | --- | --- | --- | --- | --- | --- | --- | --- | --- | --- | --- | --- | --- | --- |
| N[C@@H](CC(=O)O)C(=O)O [Asparatic Acid, asparatic acid] | −6.4 °C | −4.5 °C | inhibiting effect of decrease in body temperature (core temperature) was shown |  |  |  |  |  |  |  |  |  |  |  |  |  |  |
| N[C@@H](CS)C(=O)O [Cystein, cystein] | −6.3 °C | −4.8 °C | inhibiting effect of decrease in body temperature (core temperature) was shown |  |  |  |  |  |  |  |  |  |  |  |  |  |  |
| NCC(=O)O [Glycine, glycine] | −6.4 °C | −6.1 °C | inhibiting effect of decrease in body temperature (core temperature) was shown |  |  |  |  |  |  |  |  |  |  |  |  |  |  |
| CC(C)[C@H](N)C(=O)O [Valine, valine] | −4.8 °C | −4.0 °C | inhibiting effect of decrease in body temperature (core temperature) was shown | 1.19 °C | 7.83±0.87 °C | 87.5% | 1389.8±415.8 pg/1×10^6 cells | 6.1±1.9 °C | 1.1±0.5 °C | 4.3±1.2 °C | 2.0±1.2 °C | 6.1±1.4 °C | 2.0±0.9 °C | 6.9±1.0 °C | 1.0±0.6 °C | inhibiting effect of decrease in body temperature was not shown | 31.2±0.8 °C |
